# Test results from patent publication US20250171420A1 (Monte Rosa Therapeutics, Inc., priority 2022, published 2025).
# Key:
# SKCO1 cell line = test: Growth inhibition, CyQUANT Direct Cell Proliferation Assay, SKCO1; assay type: cell-based; details: Homo sapiens, SK-CO-1; SKCO1, 120 to 168 hours; read-out: SKCO1 GI50
# Summary of the method: (§1)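 Cells seeded 300 to 1,800 per well, day-0 CyQUANT Direct read after overnight attachment; 9-point 3-fold dilutions from 30 μM top concentration, 120 to 168 h exposure, 0.3% DMSO control. Fluorescence Ex/Em 480/520 nm; growth inhibition normalised to day-0 and untreated day-N signals, GI50 at 50% of untreated control.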
# CK1α = target: T1, CK1α (Homo sapiens, UniProt P48729+Q96SW2); test: Western blot of CK1α levels in HEK293 and HEK293 CRBN knock out cells; assay type: cell-based; details: 0.1, 1, 10 μM, 24 hours, FIG. 1
# T1 construct: HEK293 clonal lines with CRISPR KI HiBiT tag on CSNK1A1
# Procedure: HEK293 cell line was purchased from ATCC (CRL-1573). HEK293 CRBN knock out (k/o) cell line (B2) was generated internally using CRISPR/Cas9 method and clonally expanded. Cells were plated at 2×10^5 cells per well in 6-well tissue culture plates (VWR) in 2 ml of DMEM media (Gibco) containing 10% FBS (Gibco), and incubated for 16 hours at 37° C., 5% CO2. Compounds were added to final concentration of 0.1 μM, 1 μM, 10 μM (DMSO concentration was kept constant at 0.1%), following incubation at 37° C., 5% CO2 for additional 24 hours. Cell lysis was performed using RIPA buffer (Pierce) containing Halt™ Protease Inhibitor Cocktail (ThermoFisher Scientific). Lysates were boiled at 95° C. for 10 minutes and 12 μg of protein lysate per sample was resolved by SDS-PAGE using 12% gels (BioRad) and transferred to nitrocellulose membrane (BioRad). Membranes were blocked using LI-COR blocking buffer (LI-COR) at room temperature for 1 hour, followed by overnight incubation with rabbit anti-CK1α (Abcam ab206652), rabbit anti-CRBN (Sigma HPA045910) and mouse anti-α-tubulin (Sigma T9026) antibodies at 4° C. Secondary antibodies (LI-COR) were added for 1 hour at room temperature, followed by imaging with LI-COR imaging system Odyssey® CLx.
# LS180 cell line = test: Growth inhibition, CyQUANT Direct Cell Proliferation Assay, LS180; assay type: cell-based; details: Homo sapiens; LS180, 120 to 168 hours; read-out: LS180 GI50
# Summary of the method: as §1
# [1] = Oral pharmacokinetics in male BALB/c mice; assay type: in vivo; details: mouse, PO 10 mg/kg, plasma, mean ± SD
# Procedure: Male BALB/c mice were administered a discrete, oral (PO) dose of Compound 288, Compound 335, Compound 102, or Compound 303 at 10 mg/kg; all mice were fasted except for mice that were dosed with Compound 288. Male BALB/c mice were fasted overnight and administered a cassette dose, PO dose of Compound 303 and other compounds at 5 mg/kg per compound.
# Blood samples were collected serially from three animals/time-point following PO administration of the test compounds to the mice and placed in tubes containing K2EDTA. The blood samples were centrifuged, and the aliquots of the resulting plasma stored frozen at −60 to −90° C.
# The plasma samples were analyzed by LC-MS/MS to determine concentrations of the test compounds. The in-life portion of the study and the bioanalysis of plasma samples was conducted at Wuxi (China).
# The pharmacokinetic parameters for the tested compounds were calculated by non-compartmental analysis using Phoenix WinNonlin software.
# GP2D cell line = test: Growth inhibition, CyQUANT Direct Cell Proliferation Assay, GP2D; assay type: cell-based; details: GP2D, 120 to 168 hours; read-out: GP2D GI50
# Summary of the method: as §1
# T1 sequence (P48729 whole entry): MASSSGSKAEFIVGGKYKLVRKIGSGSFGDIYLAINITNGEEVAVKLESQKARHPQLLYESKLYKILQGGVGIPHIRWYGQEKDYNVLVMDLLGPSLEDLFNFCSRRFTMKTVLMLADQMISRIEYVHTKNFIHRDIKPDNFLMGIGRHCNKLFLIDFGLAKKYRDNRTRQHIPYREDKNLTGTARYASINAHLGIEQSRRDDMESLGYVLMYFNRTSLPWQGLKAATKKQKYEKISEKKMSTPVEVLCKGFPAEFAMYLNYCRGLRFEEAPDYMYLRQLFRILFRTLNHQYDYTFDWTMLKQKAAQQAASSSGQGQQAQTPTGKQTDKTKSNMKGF
# T1 sequence (Q96SW2 whole entry): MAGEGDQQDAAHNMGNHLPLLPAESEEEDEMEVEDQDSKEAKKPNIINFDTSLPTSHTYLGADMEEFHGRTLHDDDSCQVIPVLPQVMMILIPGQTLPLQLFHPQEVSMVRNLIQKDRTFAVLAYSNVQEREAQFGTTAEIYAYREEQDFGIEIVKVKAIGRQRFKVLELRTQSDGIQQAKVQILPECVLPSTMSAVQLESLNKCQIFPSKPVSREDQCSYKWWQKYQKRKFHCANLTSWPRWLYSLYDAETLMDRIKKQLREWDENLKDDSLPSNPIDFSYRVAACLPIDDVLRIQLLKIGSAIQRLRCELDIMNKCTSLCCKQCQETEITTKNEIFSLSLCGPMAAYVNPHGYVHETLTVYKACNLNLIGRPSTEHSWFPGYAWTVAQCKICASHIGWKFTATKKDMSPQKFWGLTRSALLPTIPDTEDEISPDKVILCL
# T1 sequence (Q16531 2-1140 partner limits assumed): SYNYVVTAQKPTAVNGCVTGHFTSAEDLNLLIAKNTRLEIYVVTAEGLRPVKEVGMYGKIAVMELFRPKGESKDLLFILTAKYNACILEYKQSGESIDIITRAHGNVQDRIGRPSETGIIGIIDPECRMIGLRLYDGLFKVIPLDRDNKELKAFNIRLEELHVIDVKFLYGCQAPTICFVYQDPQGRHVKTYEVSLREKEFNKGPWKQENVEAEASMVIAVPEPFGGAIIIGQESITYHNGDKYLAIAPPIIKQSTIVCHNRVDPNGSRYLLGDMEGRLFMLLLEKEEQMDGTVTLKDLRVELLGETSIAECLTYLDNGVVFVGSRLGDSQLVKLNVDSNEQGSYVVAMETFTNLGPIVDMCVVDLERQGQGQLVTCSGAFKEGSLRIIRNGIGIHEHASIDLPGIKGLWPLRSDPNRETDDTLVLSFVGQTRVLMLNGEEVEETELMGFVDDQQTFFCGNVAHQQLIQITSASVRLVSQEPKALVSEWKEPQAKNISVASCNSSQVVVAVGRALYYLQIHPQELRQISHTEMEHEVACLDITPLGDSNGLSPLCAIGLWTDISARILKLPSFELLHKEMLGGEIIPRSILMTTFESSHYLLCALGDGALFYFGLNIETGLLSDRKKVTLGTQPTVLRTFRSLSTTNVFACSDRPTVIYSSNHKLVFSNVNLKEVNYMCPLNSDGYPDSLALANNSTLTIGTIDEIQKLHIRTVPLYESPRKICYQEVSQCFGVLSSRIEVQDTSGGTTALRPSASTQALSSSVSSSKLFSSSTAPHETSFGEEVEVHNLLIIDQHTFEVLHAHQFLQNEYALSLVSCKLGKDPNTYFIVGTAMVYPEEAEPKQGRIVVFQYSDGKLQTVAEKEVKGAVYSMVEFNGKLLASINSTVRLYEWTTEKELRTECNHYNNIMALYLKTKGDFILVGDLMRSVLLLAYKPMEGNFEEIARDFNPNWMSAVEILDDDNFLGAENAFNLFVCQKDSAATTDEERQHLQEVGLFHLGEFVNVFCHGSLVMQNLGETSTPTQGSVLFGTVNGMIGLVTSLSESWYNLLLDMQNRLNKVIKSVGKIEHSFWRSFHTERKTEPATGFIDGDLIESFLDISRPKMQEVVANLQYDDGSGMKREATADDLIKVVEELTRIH
structure (smiles),measurement,setting,value
"C[C@@H]1Cc2ccccc2N1C(=O)Nc1ccc2c(c1)CN(C1CCC(=O)NC1=O)C2=O (stereo partly drawn) [Compound 102, (2R)—N-(2-(2,6-dioxopiperidin-3-yl)-1-oxoisoindolin-5-yl)-2-methylindoline-1-carboxamide]",GI50,SKCO1 cell line,< 100 nM
same,effect on CK1a levels in HEK293 cell line,"CK1α; HEK293, cereblon present",decreases CK1a levels
same,effect on CK1a levels in cereblon (CRBN) knock-out HEK293 cell line,CK1α; HEK293 CRBN knock-out,no effect on CK1a levels
same,GI50,LS180 cell line,100 to 1000 nM
same,AUC,[1],1040 ± 245 ng·h/mL
same,AUC(0-t),[1],889 ± 218 ng·h/mL
same,Cmax,[1],361 ± 142 ng/mL
same,Tmax,[1],1.33 ± 0.58 h
same,GI50,GP2D cell line,100 to 1000 nM
